Results: patent US20240207396A1 (priority 2021, published 2024)

Key:
C. albicans = type: in vivo; conditions: immunocompromised mice; for Survival rate: 7 days after fatal dose of C. albicans by tail vein at week 8; for Survival number after 7 days: fatal dose of C. albicans by tail vein at week 8, 20 mice per group, fluconazole 50 mg/kg d intragastric for 7 days
[1] = system: Th17 cells (cytokine IL-17F); conditions: in words; after immunization vs. blank control group
Procedure: The effectiveness of the vaccine was studied by using an immunocompromised (neutropenia) mouse model. […] To investigate the T cell-mediated immune response, mouse blood was taken and detected for a change in cytokine IL-17F level in Th17 cells to evaluate the immunogenicity of chitosan oligosaccharide-carrier protein vaccine.
6-8-week-old Balb/c female mice were selected, and adaptively fed for 3-7 d. 20 g/L cyclophosphamide was prepared with normal saline, and the cyclophosphamide was injected intraperitoneally by body weight of 200 mg/kg. The number of neutrophils in the mouse blood was measured by a SYSMEX XT-2000i automatic blood analyzer after 3 days. If the number of the neutrophils was <500/mm^3, the experiment could be continued. After that, the cyclophosphamide was injected every 10 days at a dose of 150 mg/kg, which was maintained throughout the test period.
A normal saline blank control group, a KLH group, a chitosan oligosaccharide group, a chitosan oligosaccharide-KLH group in Example 6, a fluconazole group (as a positive control of a challenge test) were set up, with 10 mice in each group. At weeks 0, 2, 4 and 6 at the start of the experiment, the mice were injected subcutaneously from multiple points on the neck and back, with an injection amount of 2.5 mg/kg. The normal saline blank group was injected with normal saline, and the fluconazole group was not injected. […]

keyhole limpet hemocyanin [KLH]
Survival rate (C. albicans): 30%
Survival number after 7 days (C. albicans): 6
Change of proportion of intracellular IL-17F compared with blank control group [1]: increased to a certain extent

OC(Cn1cncn1)(Cn1cncn1)c1ccc(F)cc1F [Fluconazole, fluconazole, reference compound]
Survival rate (C. albicans): 50%
Survival number after 7 days (C. albicans): 10
